According to patent publication US11219625B2, “Inhibitors of N-linked glycosylation and methods using same” (YALE UNIVERSITY, priority 2015, dated 2022):

Legend:
cyclin D1 = assay: Cyclin D1 expression (qRT-PCR, western blot), PC9; type: cell-based, human
Method: FIGS. 5A-5G illustrate NGI-1 induces G1 arrest and senescence in EGFR addicted tumor cells. FIG. 5A illustrates cell cycle distribution of PC9 cells after 24 h NGI-1 treatment for 24 h determined by flow cytometry. […] FIG. 5B illustrates cell cycle distribution of A549 cells after 24 h NGI-1 treatment for 24 h determined by flow cytometry. FIG. 5C illustrates western blot time course of cyclin D1 expression in PC9 and A549 cells after NGI-1 treatment. FIG. 5D illustrates quantitative real-time PCR analysis of PC9 and A549 cells. A time course of cyclin D1 expression levels relative to GAPDH is represented. […] FIG. 5F illustrates senescence of PC9 cells explored by: cell autofluorescence, measured by flow cytometry using a detector for PE/YFP; lipofuscin accumulation, detected by confocal laser scanning microscopy using an excitation laser of 405 nm with acquired signals from spectrums of yellow 575-620 nm; and morphology changes, enlarged vs. flattened. […] Significance was calculated using a T test (*p<0.05. **p<0.01). FIG. 5G illustrates senescence of A549 cells explored by: cell autofluorescence, measured by flow cytometry using a detector for PE/YFP; lipofuscin accumulation, detected by confocal laser scanning microscopy using an excitation laser of 405 nm with acquired signals from spectrums of yellow 575-620 nm; and morphology changes, enlarged vs. flattened. […]

H3255 cells = assay: MTT proliferation assay, H3255; type: cell-based; conditions: H3255, 10 μM NGI-1, 5 d, p<0.05
Method: FIGS. 7A-7D illustrate EGFR kinase domain mutant cell lines growth inhibition and cell cycle arrest response to NGI-1. FIG. 7A illustrates MTT assays to determine the effects of NGI-1 on growth of H3255 cells. FIG. 7B illustrates MIT assays to determine the effects of NGI-1 on growth of HCC827 cells. EGFR kinase domain mutant cell lines H3255 and HCC827 cells were untreated or treated with 10 μM NGI-1 for 5 d. […] FIG. 7C illustrates cell cycle distribution of H3255 after 24 h NGI-1 treatment for 24 h determined by flow cytometry. FIG. 7D illustrates cell cycle distribution of HCC827 after 24 h NGI-1 treatment for 24 h determined by flow cytometry.
Growth rates were determined by CellTiter 96 NonRadioactive Cell Proliferation Assay (Promega; Madison, Wis. USA) according to the manufacturer's directions. Briefly, NSCLC cells (2×10^3) untreated or treated with […] NGI-1 or 1 μM Tn, were seeded in triplicates in 96-wells plates and grown in culture medium containing […]. Cell numbers were estimated after 0, 3, and 5 days by adding MTT [(3-(4,5-Dimethylthiazol-2-yl)-2,5-diphenyltetrazolium bromide] reagent to the wells 4 hours before taking the spectrophotometric reading (absorbance at 570 nm).

## Cc1cnc(NC(=O)c2cc(S(=O)(=O)N(C)C)ccc2N2CCCC2)s1 [NGI-1, 5-(N,N-Dimethylsulfamoyl)-N-(5-methylthiazol-2-yl)-2-(pyrrolidin-1-yl)benzamide]
Cyclin D1; PC9
  cyclin D1 reduced, protein level: 40%
Cyclin D1; PC9, p<0.01
  cyclin D1 reduced, mRNA level: 40%±15%
H3255 cells
  reduction of proliferation, MTT: > 45%
